Results reported in patent EP0341527A2, “Agent for increasing animal growth” (HOECHST AKTIENGESELLSCHAFT, priority 1988, dated 1989).

Legend:
[1] = system: männlichen Ratten; assay: Feeding trial in male rats (growth, feed intake, feed conversion); format: in vivo; conditions: for Futterverwertung (g Futter/g Gewichtszunahme) relativ zur Kontrollgruppe in % / mittlere Futterverwertung relativ zur Kontrollgruppe in %: lower number = better feed conversion; for mittlere Futterverwertung relativ zur Kontrollgruppe in %: mean over 5-40 ppm Forskolin; for Futteraufnahme (g/d) / Futteraufnahme relativ zur Kontrolle / Gewicht (g) am Ende / Gewichtszunahme relativ zur Kontrolle (%): 28 d
Text: In einem Fütterungsversuch mit 60 männlichen Ratten im Gewichtsabschnitt von 40 bis 170 g Lebendmasse wurde die Wirkung von 5, 10, 20 und 40 ppm Forskolin im Futter bei zwei verschiedenen Proteingehalten der Diäten (15 und 20 Gew.-% für eine suboptimale bzw. optimale Versorgung) auf das Wachstum, die Futteraufnahme und die Futterverwertung im Vergleich zum Futter ohne Gehalt an Forskolin untersucht. Die Diäten (Zusammensetzung siehe Tabelle 1) waren mit 16,6 und 16,8 kJ/g Trockensubstanz isokalorisch. Jeweils sechs Tiere wurden mit Futter gleichen Gehalts an Forskolin und Protein gefüttert und die Resultate für die Auswertung ermittelt. Die jeweiligen sechs Tiere wurden zu je zweien in Makrolonkäfigen in einer Klimakammer bei konstant 25°C und 65 % relativer Luftfeuchte 28 Tage lang gehalten.

[2] = system: Männliche Lohmann-Masthähnchen; assay: Feeding trial in broilers (growth, feed intake, feed conversion); format: in vivo, Broilern; conditions: for Futteraufnahme (g/d) / Futteraufnahme, prozentualer Wert relativ zur Kontrollgruppe / Gewicht (Masse) am Ende, prozentualer Wert relativ zur Kontrollgruppe / Massezunahme, prozentualer Wert relativ zur Kontrollgruppe / Futterverwertung, prozentualer Wert relativ zur Kontrollgruppe / Gewicht (Masse) (g) am Ende / Massezunahme (g/d) / Futterverwertung g Futter/g Zunahme: 22 wt% protein; for Futterverwertung, prozentualer Wert relativ zur Kontrollgruppe / Futterverwertung g Futter/g Zunahme: lower = better; for Gewicht (Masse) (g) am Ende / Massezunahme (g/d) / Futterverwertung g Futter/g Zunahme: mean ± spread
Protocol: Männliche Lohmann-Masthähnchen mit einer Lebendmasse zwischen 35 und 45 g wurden in Gruppen von jeweils 20 Tieren pro Behandlung (100 cm²/Tier) auf einer Einstreu aus Hobelspänen bei 24-stündiger Beleuchtung und einer Temperatur von 36 ± 1°C bis zum 21. Versuchstag und 26 ± 1°C vom 22. bis zum 35. Versuchstag gehalten. Das Futter wurde ad libitum angeboten. Die Zusammensetzung des Futters (ohne Wirkstoff) ist in Tabelle 5 angegeben. Der Proteingehalt betrug 22 Gew.-% (entsprechend dem Bedarf). Forskolin wurde als Wurzelmehl über eine Glucose-Vormischung in die Ration eingebracht. Tabelle 5

[3] = 15 wt% crude protein diet, 5 ppm Forskolin in feed
[4] = 15 wt% crude protein diet, 10 ppm Forskolin in feed
[5] = 15 wt% crude protein diet, 20 ppm Forskolin in feed
[6] = 15 wt% crude protein diet, 40 ppm Forskolin in feed
[7] = 20 wt% crude protein diet, 5 ppm Forskolin in feed
[8] = 20 wt% crude protein diet, 10 ppm Forskolin in feed
[9] = 20 wt% crude protein diet, 20 ppm Forskolin in feed
[10] = 20 wt% crude protein diet, 40 ppm Forskolin in feed
[11] = 2 ppm Forskolin in feed (as root meal)
[12] = 4 ppm Forskolin in feed (as root meal)
[13] = 8 ppm Forskolin in feed (as root meal)
[14] = 16 ppm Forskolin in feed (as root meal)
[15] = 32 ppm Forskolin in feed (as root meal)
[16] = broilers, 'up to', 2-32 ppm Forskolin in feed

`C=C[C@@]1(C)CC(=O)[C@]2(O)[C@@]3(C)[C@@H](O)CCC(C)(C)[C@@H]3[C@H](O)[C@H](OC(C)=O)[C@@]2(C)O1` [Forskolin] was tested, and the Zuwachs ([1]; 15 % protein, 5 ppm Forskolin) was “ca. 91 g”, the “Futterverwertung (g Futter/g Gewichtszunahme) relativ zur Kontrollgruppe in %” value ([1]; 15 % protein, 5 ppm Forskolin) was 107,7% and the Zuwachs ([1]; 15 % protein, 10 ppm Forskolin) was roughly 115 g. The “Futterverwertung (g Futter/g Gewichtszunahme) relativ zur Kontrollgruppe in %” value ([1]; 15 % protein, 10 ppm Forskolin) was 100,8%, the Zuwachs ([1]; 15 % protein, 20 ppm Forskolin) was roughly 122 g and the “Futterverwertung (g Futter/g Gewichtszunahme) relativ zur Kontrollgruppe in %” value ([1]; 15 % protein, 20 ppm Forskolin) was 97,3%. For the same compound, the “Futterverwertung (g Futter/g Gewichtszunahme) relativ zur Kontrollgruppe in %” value ([1]; 15 % protein, 40 ppm Forskolin) was 109,3%, the “mittlere Futterverwertung relativ zur Kontrollgruppe in %” value ([1]; 15 % protein) was 103,7% and the “gesteigerte Zunahme an Lebendmasse im Vergleich zur entsprechenden Kontrollgruppe” value ([1]; 15 and 20 wt% protein, up to 20 ppm Forskolin, within 28 days, 'up to') was no more than 39%. The “Gewichtszunahme (g/28 d)” value [1, 3] was 90,9 g/28 d, the “Futteraufnahme (g/d)” value [1, 3] was 9,07 g/d and the “Futteraufnahme relativ zur Kontrolle” value [1, 3] was 111,9. For the same compound, the “Gewicht (g) am Ende” value [1, 3] was 131,3 g, the “Gewichtszunahme relativ zur Kontrolle (%)” value [1, 3] was 103,6% and the “Gewichtszunahme (g/28 d)” value [1, 4] was 115,1 g/28 d. The “Futteraufnahme (g/d)” value [1, 4] was 10,70 g/d, the “Futteraufnahme relativ zur Kontrolle” value [1, 4] was 132,2 and the “Gewicht (g) am Ende” value [1, 4] was 156,0 g. The “Gewichtszunahme relativ zur Kontrolle (%)” value [1, 4] was 131,2%, the “Gewichtszunahme (g/28 d)” value [1, 5] was 122,0 g/28 d and the “Futteraufnahme (g/d)” value [1, 5] was 11,00 g/d. The “Futteraufnahme relativ zur Kontrolle” value [1, 5] was 135,7, the “Gewicht (g) am Ende” value [1, 5] was 162,6 g and the “Gewichtszunahme relativ zur Kontrolle (%)” value [1, 5] was 139,1%. For the same compound, the “Gewichtszunahme (g/28 d)” value [1, 6] was 81,8 g/28 d, the “Futteraufnahme (g/d)” value [1, 6] was 8,26 g/d and the “Futteraufnahme relativ zur Kontrolle” value [1, 6] was 101,8. For the same compound, the “Gewicht (g) am Ende” value [1, 6] was 122,3 g, the “Gewichtszunahme relativ zur Kontrolle (%)” value [1, 6] was 93,3% and the “Futterverwertung erhöht” value ([1]; 20 % protein content, 'up to about', refers to mean feed conversion of Table 4) was no more than 8%. For the same compound, the “Futterverwertung (g Futter/g Gewichtszunahme) relativ zur Kontrollgruppe in %” value ([1]; 20 % protein, 5 ppm Forskolin) was 92,4%, the Zuwachs ([1]; 20 % protein, 10 ppm Forskolin) was roughly 113 g and the “Futterverwertung (g Futter/g Gewichtszunahme) relativ zur Kontrollgruppe in %” value ([1]; 20 % protein, 10 ppm Forskolin) was 93,8%. For the same compound, the Zuwachs ([1]; 20 % protein, 20 ppm Forskolin) was roughly 121 g, the “Futterverwertung (g Futter/g Gewichtszunahme) relativ zur Kontrollgruppe in %” value ([1]; 20 % protein, 20 ppm Forskolin) was 90,5% and the “Futterverwertung (g Futter/g Gewichtszunahme) relativ zur Kontrollgruppe in %” value ([1]; 20 % protein, 40 ppm Forskolin) was 92,0%. The “mittlere Futterverwertung relativ zur Kontrollgruppe in %” value ([1]; 20 % protein) was 92,2%, the “Gewichtszunahme (g/28 d)” value [1, 7] was 117,6 g/28 d and the “Futteraufnahme (g/d)” value [1, 7] was 10,70 g/d. The “Futteraufnahme relativ zur Kontrolle” value [1, 7] was 115,7, the “Gewicht (g) am Ende” value [1, 7] was 157,7 g and the “Gewichtszunahme relativ zur Kontrolle (%)” value [1, 7] was 124,4%. The “Gewichtszunahme (g/28 d)” value [1, 8] was 112,9 g/28 d, the “Futteraufnahme (g/d)” value [1, 8] was 10,40 g/d and the “Futteraufnahme relativ zur Kontrolle” value [1, 8] was 112,4. The “Gewicht (g) am Ende” value [1, 8] was 153,2 g, the “Gewichtszunahme relativ zur Kontrolle (%)” value [1, 8] was 119,9% and the “Gewichtszunahme (g/28 d)” value [1, 9] was 120,5 g/28 d. For the same compound, the “Futteraufnahme (g/d)” value [1, 9] was 10,70 g/d, the “Futteraufnahme relativ zur Kontrolle” value [1, 9] was 115,7 and the “Gewicht (g) am Ende” value [1, 9] was 161,9 g. For the same compound, the “Gewichtszunahme relativ zur Kontrolle (%)” value [1, 9] was 127,9%, the “Gewichtszunahme (g/28 d)” value [1, 10] was 103,1 g/28 d and the “Futteraufnahme (g/d)” value [1, 10] was 9,31 g/d. The “Futteraufnahme relativ zur Kontrolle” value [1, 10] was 100,6, the “Gewicht (g) am Ende” value [1, 10] was 143,0 g and the “Gewichtszunahme relativ zur Kontrolle (%)” value [1, 10] was 109,4%. For the same compound, the Futteraufnahme (g/d) [2, 11] was 88,4 g/d, the “Futteraufnahme, prozentualer Wert relativ zur Kontrollgruppe” value [2, 11] was 104,0% and the “Gewicht (Masse) am Ende, prozentualer Wert relativ zur Kontrollgruppe” value (shortened to “Gewicht (Masse) am Ende”) [2, 11] was 108,5%. The “Massezunahme, prozentualer Wert relativ zur Kontrollgruppe” value [2, 11] was 109,0%, the “Futterverwertung, prozentualer Wert relativ zur Kontrollgruppe” value [2, 11] was 94,6% and the “Gewicht (Masse) (g) am Ende” value [2, 11] was 1715,2±196,2 g. For the same compound, the “Massezunahme (g/d)” value [2, 11] was 45,4±5,4 g/d, the “Futterverwertung g Futter/g Zunahme” value [2, 11] was 1,97±0,24 g Futter/g Zunahme and the Futteraufnahme (g/d) [2, 12] was 86,2 g/d. For the same compound, the “Futteraufnahme, prozentualer Wert relativ zur Kontrollgruppe” value [2, 12] was 101,6%, the “Gewicht (Masse) am Ende” value [2, 12] was 106,4% and the “Massezunahme, prozentualer Wert relativ zur Kontrollgruppe” value [2, 12] was 106,0%. For the same compound, the “Futterverwertung, prozentualer Wert relativ zur Kontrollgruppe” value [2, 12] was 95,7%, the “Gewicht (Masse) (g) am Ende” value [2, 12] was 1682,5±253,7 g and the “Massezunahme (g/d)” value [2, 12] was 44,4±6,9 g/d. For the same compound, the “Futterverwertung g Futter/g Zunahme” value [2, 12] was 1,99±0,38 g Futter/g Zunahme, the Futteraufnahme (g/d) [2, 13] was 83,8 g/d and the “Futteraufnahme, prozentualer Wert relativ zur Kontrollgruppe” value [2, 13] was 98,7%. The “Gewicht (Masse) am Ende” value [2, 13] was 103,9%, the “Massezunahme, prozentualer Wert relativ zur Kontrollgruppe” value [2, 13] was 104,3% and the “Futterverwertung, prozentualer Wert relativ zur Kontrollgruppe” value [2, 13] was 93,8%. For the same compound, the “Gewicht (Masse) (g) am Ende” value [2, 13] was 1643,0±192,3 g, the “Massezunahme (g/d)” value [2, 13] was 43,5±5,3 g/d and the “Futterverwertung g Futter/g Zunahme” value [2, 13] was 1,95±0,24 g Futter/g Zunahme. For the same compound, the Futteraufnahme (g/d) [2, 14] was 86,7 g/d, the “Futteraufnahme, prozentualer Wert relativ zur Kontrollgruppe” value [2, 14] was 102,0% and the “Gewicht (Masse) am Ende” value [2, 14] was 103,1%. For the same compound, the “Massezunahme, prozentualer Wert relativ zur Kontrollgruppe” value [2, 14] was 103,4%, the “Futterverwertung, prozentualer Wert relativ zur Kontrollgruppe” value [2, 14] was 97,9% and the “Gewicht (Masse) (g) am Ende” value [2, 14] was 1629,5±242,4 g. For the same compound, the “Massezunahme (g/d)” value [2, 14] was 43,1±6,6 g/d, the “Futterverwertung g Futter/g Zunahme” value [2, 14] was 2,04±0,33 g Futter/g Zunahme and the Futteraufnahme (g/d) [2, 15] was 86,4 g/d. For the same compound, the “Futteraufnahme, prozentualer Wert relativ zur Kontrollgruppe” value [2, 15] was 101,8%, the “Gewicht (Masse) am Ende” value [2, 15] was 103,9% and the “Massezunahme, prozentualer Wert relativ zur Kontrollgruppe” value [2, 15] was 103,9%. For the same compound, the “Futterverwertung, prozentualer Wert relativ zur Kontrollgruppe” value [2, 15] was 97,2%, the “Gewicht (Masse) (g) am Ende” value [2, 15] was 1642,7±182,9 g and the “Massezunahme (g/d)” value [2, 15] was 43,3±5,0 g/d. The “Futterverwertung g Futter/g Zunahme” value [2, 15] was 2,02±0,28 g Futter/g Zunahme, the Futterverwertung verbessert [2, 16] was no more than 7% and the “Lebendmassezunahme gegenüber der Kontrollgruppe verbessert” value [2, 16] was no more than 9%.
